Test [1] concerns the target IC-21 macrophage elastase. Nature of the test: Elastase activity in IC-21 macrophages. The class given is biochemical, mouse. As to conditions: 120 min.
Test [2] concerns the target J774-A1 prostaglandin cyclooxygenase. In words: Prostaglandin cyclooxygenase activity in J774-A1 macrophages. The class given is cell-based, mouse. As to conditions: 60 min; read-out: IC50 Cyclo-oxygenase J774-A1. An excerpt:
Few reports in the literature indicate interaction at these receptor sites other than by peptides or antibodies. […] Blocking these receptors is desirable because the entire inflammation cascade of events is triggered by the early release of TNFa and IL-1. […] Radioisotopes were obtained from New England Nuclear [Dupont, Boston, MA] and substrates and co- factors were obtained from Sigma Chemical Co. [St. Louis, MO]. […] Cell lines were obtained from American Type Culture Collection [Rockville, MD]. In Vivo Tests Anti-inflammatory screen in mice: Male CF male mice weighing 28-32g obtained from Jackson Lab. [Bar Harbor, […]] were used to screen agents at 8 or 16 mg/kg intraperitoneal [I.P.] x 2 administered 3 hr and 30 min prior to administering the irritant, according to Winter's protocol. Evaluation of the induced edema was made by injecting 2% carrageenan in 0.9% saline into the plantar region of the foot. The opposite foot injected with 0.9% isotonic saline was used as a base line. […] Salmonella abortus equi [Lot # 69F4003] […] Drugs from 2 to 16 mg/kg, I.P. were administered 2 hr prior and 2 hr post-injection of the LPS and then subsequently for every 24 hr for the length ofthe animals' lives. Deaths were recorded every 12 hr and continued for 96 hr. […] In vitro TNFa andIL-1 Measurements and Cellular Regulation IC-21 mouse macrophages were maintained in RPMI-1640 + 10% FCS + P/S. After the cells had grown to confluency, E. coli LPS at 10 Ixg/ml was added to the medium. Agents were incubated at 12.5 to 100 µM final concentration for 18 hr. The medium (100 btl) was collected for TNFCt determinations. Interleukin-1 [IL-1] release was determined using P388D1 cells which were maintained in RPMI-1640 + 10% FCS + P/S. The L929 bioassay was used to quantitate the TNF and the IL-1 levels. The L929 mouse fibroblasts were grown in DMEM + 10% FCS + P/S to confluency in 96 well plates and incubated with 100 tl ofmedium from […] or P388D cells after 18 hr. The cells were stained with 0.2% crystal violet in 20% MeOH and read at 580 nm using a Molecular Devices scanner (SOFT-max program). High Affinity Binding to Receptors on L929-106 Cells Two laCi of 125I-TNFct (human recombinant, 30 mCi/tg New England Nuclear) or 125I-IL-1 (70-120[.t Ci/lxg,New England Nuclear) was added to confluency L929 cells for 90 min or 5 hr, respectively with 25, 50 and 100 tM of the test compounds 12]. The cells were washed repeatedly with isotonic saline, pH.7.2 and aliquots counted. Prostaglandin cylcooxygenase activity Mouse J774AI macrophages maintained in Dulbecco's modified Eagle's medium + 15% FCS + P/S. Cells (5 x 106) were incubated with agents (5 to 100 ].tM final concentration) and 3H-arachidonic acid (100 Ci/mol) for 60 min at 37C in a CO2 incubator. The reaction was terminated with 2N HCI, the mixture extracted 2 X with ether, and the organic layer evaporated.

Test [3] deals with human leukocyte elastase (RPMI 1788). In words: Elastase activity in human leukocytes RPMI 1788. The class given is biochemical.

The IC50 is the midpoint of a concentration-inhibition curve. As to `CC(=O)Oc1c2cc(S(=O)(=O)[O-])cc1Cc1cc(S(=O)(=O)[O-])cc(c1OC(C)=O)Cc1cc(S(=O)(=O)[O-])cc(c1OC(C)=O)Cc1cc(S(=O)(=O)[O-])cc(c1OC(C)=O)Cc1cc(S(=O)(=O)[O-])cc(c1OC(C)=O)Cc1cc(S(=O)(=O)[O-])cc(c1OC(C)=O)Cc1cc(S(=O)(=O)[O-])cc(c1OC(C)=O)Cc1cc(S(=O)(=O)[O-])cc(c1OC(C)=O)C2.[Na+].[Na+].[Na+].[Na+].[Na+].[Na+].[Na+].[Na+]` [Compound 8], the values for the 50% inhibitory concentration (IC50) in test [1] and in test [2] were 111 µM and 33.3 µM, respectively.
Consider `COc1c2cc(S(=O)(=O)[O-])cc1Cc1cc(S(=O)(=O)[O-])cc(c1OC)Cc1cc(S(=O)(=O)[O-])cc(c1OC)Cc1cc(S(=O)(=O)[O-])cc(c1OC)Cc1cc(S(=O)(=O)[O-])cc(c1OC)Cc1cc(S(=O)(=O)[O-])cc(c1OC)C2.[Na+].[Na+].[Na+].[Na+].[Na+].[Na+]` [Compound 6], for which the values for the 50% inhibitory concentration (IC50) in test [3] (60 min) and in test [3] (120 min) were 275 µM and 162 µM, respectively.
